Results published in US10203330B2, “Methods and materials for identifying and treating mammals having lung adenocarcinoma characterized by neuroendocrine differentiation” (Mayo Foundation for Medical Education and Research, priority 2013, dated 2019).
Entries after “also recorded” stand apart in the source; their conditions may differ.

Tests used:
Type in all cases: cell-based
[1] = tested on: A549 cells and A549-ASCL1 cells; assay: Clonogenic number of A549 and A549-ASCL1 cells after cisplatin treatment; settings: ASCL1 over-expressing cells versus cells not expressing ASCL1; 0, 3 or 9 μM cisplatin for 14 days, FIG. 15
ASCL1 = ASCL1 knock down in HCC1833 cells, ASCL1 and RET expression; settings: HCC1833 cells transfected with the construct, FIG. 13 left
Text: Two cell lines are used to confirm the effectiveness of drugs for treating lung adenocarcinoma characterized by neuroendocrine differentiation. The first is the HCC1833 cell line, which was derived from lung AD and has high expression levels of ASCL1 and RET. The second in the A549 cell line which has low endogenous expression of ASCL1 and is stably transfected with ASCL1 (A549-As^+). A549-As^+ captures salient features of ASCL1^+ lung AD from patients, including increased expression of RET. HCC1833 are stably transfected with ASCL1 siRNA to knock down ASCL1 and produce a HCC1833-AsKD cell line. Lowering ASCL1 expression leads to low levels of RET expression.
(§1) The HCC1833 adenocarcinoma cell line expressed high endogenous levels of ASCL1 and RET (FIG. 13, left). […] In addition, STAT3 expression (in JAK/STAT3 pathway) went down.

HCC1833 cells = assay: Filling the gap scratch assay; settings: HCC1833 cells transfected with ASCL1 shRNA versus wild-type and control vector cells, day 3, FIG. 14; listed as ASCL1-sh2
Text: FIG. 14 contains photographs of cells from a filling the gap scratch assay (see, e.g., Liang et al., Nature Protocols, 2:329-333 (2007)).
as §1

| Compound | remaining clonogenic potential after cisplatin treatment [1] | ASCL1 expression (ASCL1) | RET expression (ASCL1) | ability to fill the gap (migration capacity) (HCC1833 cells) |
| --- | --- | --- | --- | --- |
| N.N.[Cl][Pt][Cl] [cisplatin] | higher than in cells that did not express ASCL1 | – | – | – |
| sh1: a small interfering RNA construct that includes: GCCAACAAGAAGATGAGTAAG (SEQ ID NO: 1) (listed as DNA, chemistry not given here) | – | reduced ASCL1 expression | reduced | – |
| sh2: a small interfering RNA construct that includes: CAACCGCGTCAAGTTGGTCAA (SEQ ID NO:2) (listed as DNA, chemistry not given here) | – | reduced ASCL1 expression | reduced | much slower ability to filling the gap; also recorded: did not fill as much of the gap |
